# Laboratory results taken from patent publication US4303674A, “Substituted decalins, their preparation and use” (Beecham Group Limited, priority 1979, dated 1981).
# Entries after “also recorded” stand apart in the source; their conditions may differ.
# Experiments:
# [1] = test system: croton oil-induced inflammation of the ear; test: croton oil model of topical anti-inflammatory activity, dose response (1% croton oil in tetrahydrofuran); type: in vivo, rat; conditions: for Treated Ear Wt mg ± s.e.: normal control 98.5, inflamed control 126.1; for Untreated Ear Wt mg ± s.e.: normal control 99.1, inflamed control 118.7; for ED50: 1% croton oil in tetrahydrofuran
# Excerpt: 3. A direct comparison of the activity of Compound (12) and Compound (5) in the croton oil model of topical anti-inflammatory activity
# [2] = test system: croton oil-induced inflammation of the rat ear; test: topical anti-inflammatory model, croton oil irritant solution on rat ears (based on Fregnan & Torsello 1975); type: in vivo, Rats, Charles River Wistar strain, male; conditions: for reduction of the increase in ear weight / activity (in words): topical
# Description: 1. Compounds (5) and (6) were tested for anti-inflammatory activity in a topical model based on that described by Fregnan G. B. & Torsello, A. L. (1975) Current Therapeutic Research 17, No. 4, 375-381.
# In the test the activity of the novel compounds was compared with that of naproxen. In outline the method is as follows:
# Rats, Charles River Wistar strain, .male. 10/group. Weight range 220-260 g.
# Irritant solution applied consists of 74% diethyl ether (20% pyridine, 5% dist. H2 O, 1% croton oil. 0.05 ml is placed on each ear, compound being included in the irritant solution on one ear. 6 hours later the ears are removed by cutting along the hairline and weighed.
# -ve controls--no irritant solution.
# +ve controls--irritant solution on both ears.
# [3] = test system: cantharidin-induced inflammation of the rat ear; test: anti-inflammatory test induced by the application of cantharidin to the rat ear (Boris & Hurley 1977); type: in vivo, male Wistar rats; conditions: for Untreated Ear Wt mg ± s.e.: normal control 92.9, inflamed control 146.3; for Treated Ear Wt mg ± s.e.: normal control 95.0, inflamed control 162.0
# Description: 2. Activity of Compound (5) in an anti-inflammatory test induced by the application of cantharidin to the rat ear
# This model developed by Boris A and Hurley M., (1977) J. Invest. Dermatology, 68, 161-164 is claimed to be selective for the anti-inflammatory activity of corticosteroids. Groups of ten male Wistar rats received 0.05 ml per ear of a solution of 400 μg of cantharidin plus or minus compound in tetrahydrofuran. […]
# [4] = 2 mg/rat, first experiment (compounds 5, 6, naproxen), -ve control 128.4, +ve control 163.2, 6 hours
# [5] = 2 mg/rat, first experiment, -ve control 122.5, +ve control 151.8, 6 hours
# [6] = 2 mg/rat, first experiment, 6 hours
SMILES,Treated Ear Wt mg ± s.e. ([1]; 1 mg/ear) [mg],Untreated Ear Wt mg ± s.e. ([1]; 1 mg/ear) [mg],Treated Ear % Inhibition ([1]; 1 mg/ear) [%],Untreated Ear % Inhibition ([1]; 1 mg/ear) [%],Treated Ear Wt mg ± s.e. ([1]; 2 mg/ear) [mg],Untreated Ear Wt mg ± s.e. ([1]; 2 mg/ear) [mg],Treated Ear % Inhibition ([1]; 2 mg/ear) [%],Untreated Ear % Inhibition ([1]; 2 mg/ear) [%],Treated Ear Wt mg ± s.e. ([1]; 4 mg/ear) [mg],Untreated Ear Wt mg ± s.e. ([1]; 4 mg/ear) [mg],Treated Ear % Inhibition ([1]; 4 mg/ear) [%],Untreated Ear % Inhibition ([1]; 4 mg/ear) [%],ED50 [1] [mg/ear],"Mean weight of Treated Ear [2, 4] [m.g.]","Mean weight of Untreated Ear [2, 5] [m.g.]","Treated Ear, % in parentheses (reduction of ear weight increase vs +ve control) [2, 6] [%]","Untreated Ear, % in parentheses (reduction of ear weight increase vs +ve control) [2, 6] [%]",reduction of the increase in ear weight / activity (in words) [2],Untreated Ear Wt mg ± s.e. ([3]; 4 mg/ear) [mg],Treated Ear Wt mg ± s.e. ([3]; 4 mg/ear) [mg],also measured
"CC(=O)CCC1CCC2=CC(=O)CCC2(C)C1 (stereo not shown) [Compound (5), 4a-Methyl-6-(3'-oxobutyl)-2,3,4,4a,5,6,7,8-octahydro-2-naphthalenone]",124.5 ± 4.6,119.9 ± 4.7,6,-6,116.4 ± 3.8,119.9 ± 5.1,35,-6,108.2 ± 2.8,115.5 ± 5.6,65,16,2.8,135.4 ± 3.3,169.0 ± 7.4,80,-59,significantly reduced the increase in ear weight brought about by the irritant solution; also recorded: The activity was at the same dose as that of naproxen,134.3,140.5,Treated Ear % Inhibition ([3]; 4 mg/ear): 32%; Untreated Ear % Inhibition ([3]; 4 mg/ear): 22%
CC(=O)CCC1CCC2=CC(=O)C=CC2(C)C1 (stereo not shown) [Compound (6)],,,,,,,,,,,,,,134.3 ± 2.3,159.1 ± 5.1,83,-25,appeared equi-active with Compound (5),,,
"CC(=O)CCC1CCC2=CC(=O)CCC2C1 (stereo not shown) [Compound (12), 6-(3'-Oxobutyl)-2,3,4,4a,5,6,7,8-octahydronaphthalene-2-one]",116.1 ± 4.6,112.6 ± 5.5,36,31,109.8 ± 3.2,117.0 ± 2.8,59,9,106.3 ± 3.4,120.6 ± 4.5,72,-10,1.6,,,,,,,,"potency relative to Compound (5) ([1]; dose response against 1% croton oil in tetrahydrofuran): of the order of two fold more potent than Compound (5); Mean weight of Treated Ear ([2]; 4 mg/rat, second experiment (compound 12), -ve control 127.0, +ve control 152.2): 136.9 ± 2.9 m.g.; Mean weight of Untreated Ear ([2]; 4 mg/rat, second experiment, -ve control 130.1, +ve control 159.4): 148.0 ± 3.9 m.g.; Treated Ear, % in parentheses (reduction of ear weight increase vs +ve control) ([2]; 4 mg/rat, second experiment): 61%; Untreated Ear, % in parentheses (reduction of ear weight increase vs +ve control) ([2]; 4 mg/rat, second experiment): 51%"
C[C@]12CCC(=O)C=C1CC[C@@H]1[C@@H]2[C@@H](O)C[C@@]2(C)[C@H]1CC[C@]2(O)C(=O)CO [Hydrocortisone],,,,,,,,,,,,,,,,,,,,,Untreated Ear Wt mg ± s.e. ([3]; 2 mg/ear): 142.0 mg; Treated Ear Wt mg ± s.e. ([3]; 2 mg/ear): 133.1 mg; Treated Ear % Inhibition ([3]; 2 mg/ear): 43%; Untreated Ear % Inhibition ([3]; 2 mg/ear): 8%
"COc1ccc2cc([C@H](C)C(=O)O)ccc2c1 [Naproxen, reference compound]",,,,,,,,,,,,,,139.5 ± 3.0,162.2 ± 4.9,68,-35,,145.0,184.8,"Mean weight of Treated Ear ([2]; 2 mg/rat, second experiment (with compound 12), -ve control 127.0, +ve control 152.2): 141.2 ± 3.7 m.g.; Mean weight of Untreated Ear ([2]; 2 mg/rat, second experiment, -ve control 130.1, +ve control 159.4): 155.9 ± 4.1 m.g.; Treated Ear, % in parentheses (reduction of ear weight increase vs +ve control) ([2]; 2 mg/rat, second experiment): 44%; Untreated Ear, % in parentheses (reduction of ear weight increase vs +ve control) ([2]; 2 mg/rat, second experiment): 12%; Treated Ear % Inhibition ([3]; 4 mg/ear): -34%; Untreated Ear % Inhibition ([3]; 4 mg/ear): 2%"
